Results reported in patent US11400104B2, “Skeletal removal of bisphosphonates” (The Regents of the University of California, priority 2016, dated 2022).

Experiments:
mouse cranial bone = assay: cranial bone displacement: AF647-ZOL pre-adsorbed via IV, FAM-ZOL sub-periosteal injection; assay type: in vivo; conditions: IV injection; cryo-cross sections
Experimental: FIG. 12A to FIG. 12C show the displacement and replacement of AF647-ZOL and 5-FAM-ZOL. FIG. 12A are fluorescent images of cranial bone. AF647-ZOL (50 μM) was pre-adsorbed on cranial bone via IV injection. 5-FAM-ZOL at the indicated doses was directly injected to the sub-periosteal space. […] The first bars of each set are for AF647-ZOL and the second bars of each set are for 5-FAM-ZOL. *, P<0.05 vs Veh by Dunnett's test.
Mice were pre-treated by 100 μl of 50 μM AF647-ZOL retro-orbital IV injection. Six days later, mice received sub-periosteal injection to cranial bone with 10 μl of 0 μM, 1 μM, 10 μM, or 50 μM FAM-ZOL. The cranial bone was harvested and soft tissues were removed. The fluorescent signals of AF647 and FAM were measured by standardized fluorescent biophotonics. The cranial bones were then prepared for cryosection. Cross-sections were made by the tape method and evaluated by confocal laser scanning microscopy.

[1] = tested on: mouse femur trabecular bone; assay: micro CT evaluation of mouse femur trabecular structure (anti-resorptive function in vivo); conditions: IV 184 μM×100 μL; femurs 2 weeks after injection; FIG. 14
Experimental: FIG. 19A to FIG. 19C present evidence that certain alkylidene bisphosphonates can be used to displace active BPs in vivo in the mouse model. […] FIG. 19B outlines the protocol for the experiments using MHDP to treat C57B16 mice. An ONJ-like lesion was generated by ZOL IV injection into the mouse, followed by extraction of the maxillary first molar. One day prior to the tooth extraction, a group of mice received intra-oral injection of 2 μg MHDP and another group received IV injection of 100 μg MHDP. FIG. 19C presents images of the mouse maxilla.
This study determines the anti-resorptive function of FL-BP in vivo, as compared to ZOL. Female B6 mice were injected with 50 μM ZOL (n=6), 50 μM FL-BP (n=6) or 0.9% NaCl vehicle solution (control: n=6) via tail vein. Three weeks later, mice were euthanized and femur and L4/L5 were harvested. After fixed in 10% buffered formalin, bone samples were subjected to micro CT analysis. The anti-resorptive function were quantitatively established by the trabecular bone three-dimensional morphometry (e.g., BV/TV, Tb.N, Tb.Th, TbSp). FL-BPs with minimal or no pharmacological BP function are used.
Mice were IV injected with 0.9% NaCl (vehicle solution), ZOL (184 μM×100 μL=5.0 μg/animal) or AF647-ZOL (184 μM×100 μL=22.0 μg/animal) and femurs were harvested 2 weeks after injection. The micro CT data were compared.

SMILES: CC1(C)C(C=CC=CC=C2N(CCCS(=O)(=O)O)c3ccc(S(=O)(=O)O)cc3C2(C)CCCCCC(=O)NCC(O)C[n+]2ccn(CC(O)(P(=O)(O)O)P(=O)(O)O)c2)=[N+](CCCS(=O)(=O)O)c2ccc(S(=O)(=O)O)cc21 (centres unmarked) [AF647-ZOL]
- location of AF647-ZOL labeling in cranial bone (mouse cranial bone): external and internal bone surfaces, as well as trabecular surface
- bone structural parameters [1]: did not change any of bone structural parameters
